# According to the supplement of paper PMC6045584:
# ± gives the standard deviation of the averaged measurements.
# Key:
# AZD4547 = compound: COc1cc(CCc2cc(NC(=O)c3ccc(N4CC(C)NC(C)C4)cc3)n[nH]2)cc(OC)c1 [AZD4547]; assay: surviving fraction relative to DMSO-only wells; higher = less growth inhibition; details: exposure time: 5 days
# Outline: (§1)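 Viability was determined by CellTiter-Glo luminescence, expressed as surviving fraction normalised to the median of DMSO-only wells. The cells were log-phase tumour cell lines seeded at 250–500 per well in 384-well plates and, after 24 hours, exposed continuously for five days to inhibitors at 0.5, 1, 5, 10, 50, 100, 500 and 1000 nM. Three screens per line were run, keeping only lines with replicate Pearson r >0.7 and median Z' >0.3.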
# SUNITINIB = compound: CCN(CC)CCNC(=O)c1c(C)[nH]c(/C=C2\C(=O)Nc3ccc(F)cc32)c1C [SUNITINIB]; assay: as above; details: exposure time: 5 days
# Outline: as §1
Test System,surviving fraction (AZD4547; 0.5 nM),surviving fraction (AZD4547; 1 nM),surviving fraction (AZD4547; 5 nM),surviving fraction (AZD4547; 10 nM),surviving fraction (AZD4547; 50 nM),surviving fraction (AZD4547; 100 nM),surviving fraction (AZD4547; 500 nM),surviving fraction (AZD4547; 1000 nM),surviving fraction (SUNITINIB; 0.5 nM),surviving fraction (SUNITINIB; 1 nM),surviving fraction (SUNITINIB; 5 nM),surviving fraction (SUNITINIB; 10 nM),surviving fraction (SUNITINIB; 100 nM),surviving fraction (SUNITINIB; 500 nM),surviving fraction (SUNITINIB; 1000 nM),surviving fraction (SUNITINIB; 50 nM)
HSSYII SYNOVIAL,0.872 ± 0.069,0.813 ± 0.031,0.606 ± 0.04,0.434 ± 0.0065,0.295 ± 0.015,0.302 ± 0.0015,0.259 ± 0.0075,0.24 ± 0.013,0.771 ± 0.076,0.694 ± 0.029,0.755 ± 0.012,0.216 ± 0.01,0.765 ± 0.045,0.418 ± 0.02,0.114 ± 0.0013,
MDAMB436 BREAST,1.05 ± 0.053,0.9823 ± 0.0041,1.03 ± 0.12,0.942 ± 0.08,0.978 ± 0.059,0.958 ± 0.062,1.07 ± 0.023,1.02 ± 0.024,0.761 ± 0.07,0.78 ± 0.046,0.79 ± 0.011,0.79 ± 0.099,0.913 ± 0.071,0.718 ± 0.061,0.596 ± 0.023,0.85 ± 0.087
HCC1806 BREAST,1.04 ± 0.14,1.08 ± 0.048,1.12 ± 0.063,1.14 ± 0.06,1.16 ± 0.11,1.13 ± 0.05,0.996 ± 0.078,1 ± 0.17,0.677 ± 0.078,0.59 ± 0.41,0.667 ± 0.45,0.566 ± 0.43,0.978 ± 0.11,0.677 ± 0.039,0.397 ± 0.044,1 ± 0.091
CHLA90 AUTONOMIC GANGLIA,0.994 ± 0.075,1.04 ± 0.099,1.07 ± 0.07,1.01 ± 0.014,0.883 ± 0.051,0.692 ± 0.039,0.568 ± 0.029,0.473 ± 0.041,0.885 ± 0.043,0.803 ± 0.062,0.805 ± 0.025,0.248 ± 0.019,0.776 ± 0.047,0.779 ± 0.015,0.201 ± 0.02,
OS25HAL BONE,0.99 ± 0.018,1.02 ± 0.02,1.037 ± 0.0085,1.04 ± 0.012,1.02 ± 0.016,1.036 ± 0.0095,0.948 ± 0.04,0.992 ± 0.018,0.886 ± 0.014,,,0.871 ± 0.053,0.925 ± 0.02,0.767 ± 0.07,0.431 ± 0.04,0.926 ± 0.038
U2OS BONE,0.992 ± 0.042,1.024 ± 0.0069,0.95 ± 0.015,0.901 ± 0.024,0.777 ± 0.013,0.759 ± 0.029,0.711 ± 0.012,0.648 ± 0.0075,0.882 ± 0.039,0.893 ± 0.032,0.95 ± 0.032,,0.94 ± 0.038,0.549 ± 0.014,0.262 ± 0.0072,0.956 ± 0.026
VP229 BREAST,1.32 ± 0.12,1.38 ± 0.049,1.42 ± 0.099,1.38 ± 0.065,1.25 ± 0.1,1.42 ± 0.092,1.4 ± 0.25,1.32 ± 0.033,0.708 ± 0.076,0.675 ± 0.1,0.709 ± 0.04,0.709 ± 0.065,0.964 ± 0.038,0.762 ± 0.064,0.364 ± 0.051,0.955 ± 0.12
HCC202 BREAST,0.984 ± 0.2,1.17 ± 0.39,0.964 ± 0.22,1.04 ± 0.26,1.31 ± 0.41,1.16 ± 0.1,1.52 ± 0.38,1.18 ± 0.21,0.879 ± 0.093,0.806 ± 0.23,1.29 ± 0.32,0.801 ± 0.19,,0.714 ± 0.15,0.639 ± 0.06,1.26 ± 0.17
BT20 BREAST,1.12 ± 0.13,1.08 ± 0.071,1.11 ± 0.059,1.13 ± 0.061,1.05 ± 0.072,1.04 ± 0.072,1.15 ± 0.043,0.968 ± 0.15,0.794 ± 0.14,0.732 ± 0.05,0.757 ± 0.081,0.783 ± 0.14,1.23 ± 0.23,1.31 ± 0.2,1.21 ± 0.16,1 ± 0.16
HMT3552 BREAST,1.06,1.09,1.01,0.895,1.03,1.04,0.852,0.888,,0.96,,,1.21,0.423,0.203,
CAL120 BREAST,0.945 ± 0.043,0.9817 ± 0.0068,0.937 ± 0.03,0.888 ± 0.025,0.713 ± 0.029,0.681 ± 0.019,0.552 ± 0.05,0.491 ± 0.039,0.881 ± 0.021,0.882 ± 0.036,0.876 ± 0.047,,0.891 ± 0.038,0.64 ± 0.039,0.386 ± 0.037,0.891 ± 0.023
93VU HEADNECK,1.01 ± 0.063,1.08 ± 0.058,1.08 ± 0.09,1.11 ± 0.05,1.11 ± 0.042,1.16 ± 0.089,1.1 ± 0.077,0.975 ± 0.086,0.817 ± 0.07,0.819 ± 0.059,0.85 ± 0.03,0.823 ± 0.078,0.93 ± 0.057,0.261 ± 0.026,0.158 ± 0.025,1.11 ± 0.055
NOS1 BONE,0.971 ± 0.12,1.07 ± 0.13,0.913 ± 0.013,0.937 ± 0.064,0.87 ± 0.093,0.824 ± 0.055,0.385 ± 0.025,0.187 ± 0.036,0.762 ± 0.05,,,0.645 ± 0.039,0.391 ± 0.027,0.167 ± 0.012,0.113 ± 0.03,0.561 ± 0.029
ASKA SYNOVIAL,1.15 ± 0.06,1.11 ± 0.015,1.2 ± 0.058,1.12 ± 0.021,1.16 ± 0.036,1.08 ± 0.084,0.877 ± 0.059,0.658 ± 0.041,0.864 ± 0.079,0.768 ± 0.059,0.858 ± 0.028,0.328 ± 0.056,0.659 ± 0.04,0.441 ± 0.034,0.104 ± 0.0093,0.867 ± 0.043
BT549 BREAST,1.16 ± 0.2,1.06 ± 0.055,1.16 ± 0.18,1.19 ± 0.13,1.04 ± 0.12,0.95 ± 0.096,0.968 ± 0.094,0.861 ± 0.052,0.8 ± 0.11,0.861 ± 0.048,0.854 ± 0.065,0.794 ± 0.13,1.12 ± 0.16,1.19 ± 0.11,0.785 ± 0.069,1.11 ± 0.13
HCC38 BREAST,0.972 ± 0.24,0.947 ± 0.062,1.02 ± 0.2,1.11 ± 0.22,0.78 ± 0.14,0.801 ± 0.14,0.66 ± 0.11,0.785 ± 0.046,0.845 ± 0.24,0.893 ± 0.22,0.966 ± 0.15,,1.18 ± 0.11,1.04 ± 0.22,0.76 ± 0.21,1.16 ± 0.1
COLO320DM LARGE INTESTINE,1.08 ± 0.027,1.11 ± 0.049,0.994 ± 0.036,0.997 ± 0.21,1.1 ± 0.076,1.05 ± 0.1,1.08 ± 0.078,1.1 ± 0.2,,0.921 ± 0.045,0.957 ± 0.063,0.369 ± 0.055,0.871 ± 0.075,0.324 ± 0.026,0.115 ± 0.011,0.929 ± 0.057
SYO1 SYNOVIAL,0.897 ± 0.051,0.942 ± 0.022,0.744 ± 0.037,0.737 ± 0.021,0.664 ± 0.012,0.686 ± 0.02,0.637 ± 0.041,0.556 ± 0.046,0.789 ± 0.035,0.609 ± 0.092,0.664 ± 0.03,0.313 ± 0.13,0.768 ± 0.036,0.52 ± 0.014,0.0887 ± 0.054,0.819 ± 0.013
SUM149.B1*.S BREAST,1.05 ± 0.013,1.083 ± 0.01,1.09 ± 0.04,1.09 ± 0.035,1.05 ± 0.083,1.07 ± 0.018,1.07 ± 0.054,1.07 ± 0.077,0.877 ± 0.07,0.786 ± 0.039,,0.437 ± 0.023,0.873 ± 0.022,0.789 ± 0.02,0.27 ± 0.0057,0.988 ± 0.02
SG27 HEADNECK,0.937 ± 0.05,0.959 ± 0.078,0.864 ± 0.027,0.82 ± 0.024,0.68 ± 0.069,0.791 ± 0.032,0.849 ± 0.027,0.943 ± 0.098,,0.949 ± 0.026,0.922 ± 0.072,0.744 ± 0.046,1.25 ± 0.12,1.72 ± 0.17,0.81 ± 0.064,1.22 ± 0.077
VCAP PROSTATE,0.966 ± 0.078,0.976 ± 0.043,1.1 ± 0.12,0.989 ± 0.12,0.948 ± 0.07,1.07 ± 0.07,0.795 ± 0.048,0.705 ± 0.065,0.976 ± 0.065,1 ± 0.088,1.09 ± 0.07,1.02 ± 0.038,1.09 ± 0.099,0.734 ± 0.034,0.519 ± 0.06,1.06 ± 0.077
